Results taken from patent publication EP1175402B1, “PIPERIDINE DERIVATIVES USEFUL AS CCR5 ANTAGONISTS” (SCHERING CORPORATION, priority 1999, dated 2000).

What follows are molecules tested against T1, human CCR5 chemokine receptor (Homo sapiens, UniProt P51681) (assay: CCR5 membrane binding assay (inhibition of 125I-RANTES binding)). Conditions: membranes from NIH 3T3 cells expressing the human CCR5 chemokine receptor, one hour incubation.
T1 construct: expressed in transfected cells; host or cells: NIH 3T3 cells (murine), membranes
Method: CCR5 Membrane Binding Assay:
A high throughput screen utilizing a CCR5 membrane binding assay identifies inhibitors of RANTES binding. This assay utilizes membranes prepared from NIH 3T3 cells expressing the human CCR5 chemokine receptor which have the ability to bind to RANTES, a natural ligand for the receptor. Using a 96-well plate format, membrane preparations are incubated with ^125I-RANTES in the presence or absence of compound for one hour. Compounds are serially diluted over a wide range of 0.001 ug/ml to 1 ug/ml and tested in triplicates. Reaction cocktails are harvested through glass fiber filters, and washed thoroughly. Total counts for replicates are averaged and data reported as the concentration required to inhibit 50 percent of total ^125I-RANTES binding.

T1 sequence (P51681 whole entry): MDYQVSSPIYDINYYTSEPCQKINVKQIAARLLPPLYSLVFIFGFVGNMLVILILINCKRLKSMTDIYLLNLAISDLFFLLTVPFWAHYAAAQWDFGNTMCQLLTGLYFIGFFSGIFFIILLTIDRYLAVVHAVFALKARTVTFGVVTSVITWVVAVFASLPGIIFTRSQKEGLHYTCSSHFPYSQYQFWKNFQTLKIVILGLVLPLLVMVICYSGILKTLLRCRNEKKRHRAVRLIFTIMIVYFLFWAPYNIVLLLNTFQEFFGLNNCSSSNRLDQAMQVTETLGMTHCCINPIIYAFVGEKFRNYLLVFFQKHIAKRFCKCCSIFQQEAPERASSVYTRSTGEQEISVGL

Row | Ki | SMILES
1 | 0.5 nM | Cc1ncnc(C)c1C(=O)N1CCC(C)(N2CCC(C(Oc3ccccn3)c3ccc(Br)cc3)CC2)CC1 (single isomer, unassigned) [Example 4C]
2 | 14 nM | CCC(=O)OC(c1ccc(Br)cc1)C1CCN(C2(C)CCN(C(=O)c3c(C)cccc3C)CC2)CC1 (stereo not shown) [Example 1B]
3 | 9.6 nM | Cc1ccnc(C)c1C(=O)N1CCC(C)(N2CCC(C(Oc3ccccn3)c3ccc(S(C)(=O)=O)cc3)CC2)CC1 (stereo not shown) [Example 2]
4 | 62.5 nM | CO/N=C(/c1ccc(OC(F)(F)F)cc1)C1CCN(C2(C)CCN(C(=O)c3c(C)cccc3C)CC2)CC1 [Example 7U]
